Here are results for 15 molecules from ChEMBL document CHEMBL3112512, “Microwave induced three-component synthesis and antimycobacterial activity of benzopyrazolo[3,4-b]quinolindiones” (2014).

The structures appear in SMILES notation. Converted amounts (≈) assume the structure as drawn.

Holding throughout (type): functional
Test [1] has as its system Mycobacterium intracellulare. Briefly: Antimycobacterial activity against Mycobacterium intracellulare MNT1408 clinical isolate by MTT assay. (Tetrazolium dyes change colour on reduction, which living cells bring about.)
For test [2], the system named is Mycobacterium scrofulaceum. Briefly: Antimycobacterial activity against Mycobacterium scrofulaceum MNT1193 clinical isolate by MTT assay.
Another test has as its system Mycobacterium szulgai. Briefly: Antimycobacterial activity against Mycobacterium szulgai MNT1100 clinical isolate by MTT assay.
Test [3] concerns Mycolicibacterium fortuitum. Description: Antimycobacterial activity against Mycobacterium fortuitum MNT1073 clinical isolate by MTT assay.
For the next test, the system named is Mycobacteroides chelonae. Briefly: Antimycobacterial activity against Mycobacterium chelonae MNT1407 clinical isolate by MTT assay.
Test [4] has as its system Mycobacterium tuberculosis. Description: Antimycobacterial activity against streptomycin, isoniazid, rifampicin, ethambutol and pirazynamide-susceptible Mycobacterium tuberculosis H37Rv ATCC 27294 by MTT assay.

For orientation: MIC means the least concentration at which growth counts as inhibited. As to `Cc1ccc(-c2n[nH]c3nc4c(c(-c5ccc([N+](=O)[O-])cc5)c23)C(=O)C(=O)c2ccccc2-4)cc1`, the MIC (in test [1]; in test [2]; in the test on Mycobacterium szulgai; in test [3]; against Mycobacteroides chelonae; in test [4]) was above 32 µg/mL each time.
Consider `O=C1C(=O)c2ccccc2C2=C1C(c1ccccc1)c1c(-c3ccc(Cl)cc3)n[nH]c1N2` (stereo not given), for which the minimum inhibitory concentration (MIC) (in test [1]; in test [2]; against Mycobacterium szulgai; in test [3]; against Mycobacteroides chelonae; in test [4]) was above 32 µg/mL throughout.
Consider `O=C1C(=O)c2ccccc2C2=C1C(c1ccccc1)c1c(-c3ccc([N+](=O)[O-])cc3)n[nH]c1N2` (stereo not given), for which the MIC was above 32 µg/mL in test [1]; above 32 µg/mL in test [2]; above 32 µg/mL against Mycobacterium szulgai; above 32 µg/mL in test [3]; above 32 µg/mL against Mycobacteroides chelonae; 32 µg/mL (≈ 71.4 µM) in test [4].
As to `Cc1nn(-c2ccccc2)c2nc3c(c(-c4ccc(F)cc4)c12)C(=O)C(=O)c1ccccc1-3`, the minimal inhibitory concentration (MIC) is above 32 µg/mL in test [1]; above 32 µg/mL in test [2]; above 32 µg/mL in the test with Mycobacterium szulgai; above 32 µg/mL in test [3]; above 32 µg/mL with Mycobacteroides chelonae; 4 µg/mL (≈ 9.23 µM) in test [4].
For `Cc1nn(-c2ccccc2)c2nc3c(c(-c4ccccc4)c12)C(=O)C(=O)c1ccccc1-3`, the MIC in test [1] was above 32 µg/mL; in test [2], above 32 µg/mL; against Mycobacterium szulgai, above 32 µg/mL; in test [3], above 32 µg/mL; in the test on Mycobacteroides chelonae, above 32 µg/mL; in test [4], at most 2 µg/mL.
Turning to `CO[C@H]1/C=C/O[C@@]2(C)Oc3c(C)c(O)c4c(O)c(c(/C=N/N5CCN(C)CC5)c(O)c4c3C2=O)NC(=O)/C(C)=C\C=C\[C@H](C)[C@H](O)[C@@H](C)[C@@H](O)[C@@H](C)[C@H](OC(C)=O)[C@@H]1C` [RIFAMPIN], the MIC in test [1] is above 0.5 µg/mL; in test [2] it was above 0.5 µg/mL; against Mycobacterium szulgai, above 0.5 µg/mL; in test [3] it was above 0.5 µg/mL; in the test on Mycobacteroides chelonae it was 0.125 µg/mL (≈ 0.152 µM); in test [4] it was 0.125 µg/mL (≈ 0.152 µM).
In the case of `Cc1ccc(-c2n[nH]c3c2C(c2ccccc2)C2=C(N3)c3ccccc3C(=O)C2=O)cc1` (stereo not given), the MIC in test [1] is above 32 µg/mL; in test [2], above 32 µg/mL; against Mycobacterium szulgai it was above 32 µg/mL; in test [3] it was above 32 µg/mL; with Mycobacteroides chelonae, above 32 µg/mL; in test [4], 16 µg/mL (≈ 38.3 µM).
In the case of `Cc1ccc(C2C3=C(Nc4[nH]nc(-c5ccccc5)c42)c2ccccc2C(=O)C3=O)cc1` (stereo not given), the minimal inhibitory concentration (MIC) (in test [1]; in test [2]; with Mycobacterium szulgai; in test [3]; in the test with Mycobacteroides chelonae; in test [4]) was above 32 µg/mL each time.
Consider `COc1ccc(C2C3=C(Nc4[nH]nc(-c5ccccc5)c42)c2ccccc2C(=O)C3=O)cc1` (stereo not given), for which the minimum inhibitory concentration (MIC) (in test [1]; in test [2]; in the test on Mycobacterium szulgai; in test [3]; with Mycobacteroides chelonae; in test [4]) was above 32 µg/mL in each case.
As to `O=C1C(=O)c2ccccc2C2=C1C(c1ccccc1)c1c(-c3ccccc3)n[nH]c1N2` (stereo not given), the MIC (in test [1]; in test [2]; against Mycobacterium szulgai; in test [3]; against Mycobacteroides chelonae; in test [4]) was above 32 µg/mL in each case.
With `Cc1nn(-c2ccccc2)c2nc3c(c(-c4ccc(Cl)cc4)c12)C(=O)C(=O)c1ccccc1-3`, the MIC (in test [1]; in test [2]; in the test on Mycobacterium szulgai; in test [3]; against Mycobacteroides chelonae; in test [4]) was above 32 µg/mL each time.
Regarding `Cc1ccc(-c2c3c(nc4c2c(C)nn4-c2ccccc2)-c2ccccc2C(=O)C3=O)cc1`, the MIC is above 32 µg/mL in test [1]; above 32 µg/mL in test [2]; above 32 µg/mL with Mycobacterium szulgai; above 32 µg/mL in test [3]; above 32 µg/mL against Mycobacteroides chelonae; 4 µg/mL (≈ 9.31 µM) in test [4].
For `COc1cc(-c2c3c(nc4c2c(C)nn4-c2ccccc2)-c2ccccc2C(=O)C3=O)cc(OC)c1OC`, the MIC (in test [1]; in test [2]; against Mycobacterium szulgai; in test [3]; in the test with Mycobacteroides chelonae; in test [4]) was above 32 µg/mL throughout.
In the case of `NNC(=O)c1ccncc1` [ISONIAZID], the MIC was above 0.5 µg/mL in test [1]; above 0.5 µg/mL in test [2]; above 0.5 µg/mL against Mycobacterium szulgai; above 0.5 µg/mL in test [3]; above 0.5 µg/mL with Mycobacteroides chelonae; 0.25 µg/mL (≈ 1.82 µM) in test [4].
Consider `COc1ccc(-c2c3c(nc4[nH]nc(-c5ccc(Cl)cc5)c24)-c2ccccc2C(=O)C3=O)cc1`, for which the MIC (in test [1]; in test [2]; against Mycobacterium szulgai; in test [3]; against Mycobacteroides chelonae; in test [4]) was above 32 µg/mL in each case.
